Measurements as given in US10676438B2, “KCNQ2-5 channel activator” (Ono Pharmaceutical Co., Ltd., priority 2014, dated 2020).
pEC50: −log10 of the molar value. Converted amounts (≈) assume the structure as drawn.

Assays:
Human KCNQ2/3 channel = Human KCNQ2/3 channel (Homo sapiens (Human), UniProt O43525+O43526); test: Opening action with respect to KCNQ2/3 channel by depolarization stimulation (thallium influx, FLIPR); assay type: cell-based; conditions: concentration giving 50% of maximum reaction of retigabine (10 μM); human KCNQ2/3 expression CHO-DHFR- cells; 5 mM potassium and 0.5 mM thallium; read-out: KCNQ2/3 ECrtg50
Protocol: Human KCNQ2/3 expression cells (CHO-DHFR-cells) were seeded in each well of 384 well plate (collagen-coated, black, clear bottom) at 0.5×10^4 cells/50 μL per well, and cultured in a MEM ALPHA medium (containing 10 vol % inactivated (56° C., 30 min) Fetal Bovine Serum and 100 IU/mL Penicillin—100 μg/mL Streptomycin—2 mM L-Glutamine) at 37° C. in 5% CO2 for 18 to 24 hours. The medium in the plate was removed. Then, incubation (room temperature, 60 minutes, light-shielded) was carried out in a loading buffer (prepared by the method described in the manual of FluxOR Thallium Detection Kit (Invitrogen, F10016, F10017)). KCNQ2/3 channel opening action (thallium influx into cells) by the depolarization stimulation (5 mM potassium and 0.5 mM thallium) was measured by FLIPR TETRA (Molecular Devices). The compound of the present invention had been treated five minutes before the depolarization stimulation, and the reaction induced by the depolarization stimulation was measured over time for 180 seconds. The channel opening action of the compound of the present invention was evaluated based on the change amount of the fluorescence intensity from the time before the depolarization stimulation to the time after the passage of 180 seconds. Thus, the concentration (ECrtg50) satisfying 50% of the fluorescence intensity change of maximum reaction (at the time of 10 μM-treatment) of retigabine under this experiment condition was calculated.

[1] = Solubility test (DMSO precipitation method, Pharmacopoeia of Japan elution test second solution); assay type: physicochemical; conditions: Pharmacopoeia of Japan elution test second solution pH=6.8, room temperature, five hours, quantitation range 5 to 100 μM; for solubility at 5 h: aqueous buffer, kinetic from dmso stock
Protocol: A calibration curve solution was prepared by diluting a test substance (10 mM DMSO solution) with acetonitrile and adding acetonitrile including an internal standard substance (candesartan) so as to be 0.1, 0.4, and 2 μM.
Sample solution was prepared as follows: 5 μL of the compound of the present invention (10 mM DMSO solution) was added to 495 μL of the Pharmacopoeia of Japan elution test second solution (pH=6.8), and the resulting mixture was stirred at room temperature for five hours. Then, the solution was placed into a solubility filter plate and subjected to suction filtration. The filtrate (20 μL) was diluted with acetonitrile, followed by adding acetonitrile including an internal standard substance ([…]).
The calibration curve and sample solutions in the amount of 5 μL were infused into LC-MS/MS (Discovery Max manufactured by Thermo Scientific) and subjected to quantitation (quantitation range: 5 to 100 μM).

| pEC50 (Human KCNQ2/3 channel) | Solubility [1] | solubility at 5 h [1] | Compound |
| --- | --- | --- | --- |
| 6.30 |  |  | Cc1cccnc1CNC(=O)Nc1c(Cl)cc(C(C)(O)C(F)(F)F)cc1Cl (stereo not shown) [Example 5 (7), 1-[2,6-dichloro-4-(1,1,1-trifluoro-2-hydroxy-2-propanyl)phenyl]-3-[(3-methyl-2-pyridinyl)methyl]urea] |
| 6.52 |  | 91 µM (≈ 43.3 µg/mL) | CC(O)(c1cc(Cl)c(NC(=O)NCc2ncccc2C(F)(F)F)c(Cl)c1)C(F)(F)F (stereo not shown) [Example 5 (9), 1-[2,6-dichloro-4-(1,1,1-trifluoro-2-hydroxy-2-propanyl)phenyl]-3-{[3-(trifluoromethyl)-2-pyridinyl]methyl}urea] |
| 5.54 |  |  | CC(O)(c1cc(Cl)c(NC(=O)NCc2nccn2Cc2ccccc2)c(Cl)c1)C(F)(F)F (stereo not shown) [Example 5 (12), 1-[(1-benzyl-1H-imidazole-2-yl)methyl]-3-[2,6-dichloro-4-(1,1,1-trifluoro-2-hydroxy-2-propanyl)phenyl]urea] |
| 8.52 |  |  | CC(O)(c1cc(Cl)c(NC(=O)NCc2ccc(C(F)(F)F)o2)c(Cl)c1)C(F)(F)F (stereo not shown) [Example 5 (17), 1-[2,6-dichloro-4-(1,1,1-trifluoro-2-hydroxy-2-propanyl)phenyl]-3-{[5-(trifluoromethyl)-2-furyl]methyl}urea] |
| 7.52 |  | 41 µM (≈ 17.4 µg/mL) | CC(O)(c1cc(Cl)c(NC(=O)CCc2ccc(F)cc2)c(Cl)c1)C(F)(F)F (stereo not shown) [Example 50 (2), N-[2,6-dichloro-4-(1,1,1-trifluoro-2-hydroxy-2-propanyl)phenyl]-3-(4-fluorophenyl)propanamide] |
| 7.30 |  |  | CC(C)(C)CC(=O)Nc1c(Cl)cc(C(C)(O)C(F)(F)F)cc1Cl (stereo not shown) [Example 50 (4), N-[2,6-dichloro-4-(1,1,1-trifluoro-2-hydroxy-2-propanyl)phenyl]-3,3-dimethylbutane amide] |
| 7.22 |  |  | CC(O)(c1cc(Cl)c(NC(=O)CCc2cccc(C(F)(F)F)c2)c(Cl)c1)C(F)(F)F (stereo not shown) [Example 50 (6), N-[2,6-dichloro-4-(1,1,1-trifluoro-2-hydroxy-2-propanyl)phenyl]-3-[3-(trifluoromethyl)phenyl]propanamide] |
| 7.40 |  |  | CC(O)(c1cc(Cl)c(NC(=O)CCc2ccccc2C(F)(F)F)c(Cl)c1)C(F)(F)F (stereo not shown) [Example 50 (7), N-[2,6-dichloro-4-(1,1,1-trifluoro-2-hydroxy-2-propanyl)phenyl]-3-[2-(trifluoromethyl)phenyl]propanamide] |
| 5.46 |  |  | CC(O)(CC(F)(F)F)c1cc(Cl)c(NC(=O)NCc2ccc(C(F)(F)F)cn2)c(Cl)c1 (stereo not shown) [Example 67, 1-[2,6-dichloro-4-(4,4,4-trifluoro-2-hydroxy-2-butanyl)phenyl]-3-{[5-(trifluoromethyl)-2-pyridinyl]methyl}urea] |

The remaining lines, values behind:

| Compound | pEC50 (Human KCNQ2/3 channel) | Solubility [1] | solubility at 5 h [1] |
| --- | --- | --- | --- |
| CC(O)(c1ccc(NC(=O)NCc2ccc(C(F)(F)F)cn2)cc1)C(F)(F)F (stereo not shown) [Comparative Example 1, 1-[4-(1,1,1-trifluoro-2-hydroxy-2-propanyl)phenyl]-3-{[5-(trifluoromethyl)-2-pyridinyl]methyl}urea, reference compound] | < 5.00 |  |  |
| O=C(Cc1ccc(F)cc1)Nc1c(Cl)cc(Cl)cc1Br [Comparative Example 2, N-(2-bromo-4,6-dichlorophenyl)-2-(4-fluorophenyl)acetamide, reference compound] |  | <5 µM | < 5 µM |
| CC(O)(c1cc(Cl)c(NC(=O)NCc2cccc(N3CCCCC3)n2)c(Cl)c1)C(F)(F)F (stereo not shown) [Example 5 (3), 1-[2,6-dichloro-4-(1,1,1-trifluoro-2-hydroxy-2-propanyl)phenyl]-3-{[6-(1-piperidinyl)-2-pyridinyl]methyl}urea] | 6.30 |  |  |
| CC(NC(=O)Nc1c(Cl)cc(C(C)(O)C(F)(F)F)cc1Cl)C(C)(C)C (stereo not shown) [Example 5 (4), 1-[2,6-dichloro-4-(1,1,1-trifluoro-2-hydroxy-2-propanyl)phenyl]-3-(3,3-dimethyl-2-butanyl)urea] | 8.52 |  | 79 µM (≈ 31.7 µg/mL) |
| CC1(C)CC(CNC(=O)Nc2c(Cl)cc(C(C)(O)C(F)(F)F)cc2Cl)CCO1 (stereo not shown) [Example 5 (5), 1-[2,6-dichloro-4-(1,1,1-trifluoro-2-hydroxy-2-propanyl)phenyl]-3-[(2,2-dimethyltetrahydro-2H-pyran-4-yl)methyl]urea] | 6.52 |  | 93 µM (≈ 41.2 µg/mL) |
| CC(O)(c1cc(Cl)c(NC(=O)NCC2(O)CCC(F)(F)CC2)c(Cl)c1)C(F)(F)F (stereo not shown) [Example 5 (6), 1-[2,6-dichloro-4-(1,1,1-trifluoro-2-hydroxy-2-propanyl)phenyl]-3-[(4,4-difluoro-1-hydroxycyclohexyl)methyl]urea] | 6.40 |  | 94 µM (≈ 43.7 µg/mL) |
| CC(O)(c1cc(Cl)c(NC(=O)NCc2ccc(Cl)s2)c(Cl)c1)C(F)(F)F (stereo not shown) [Example 5 (8), 1-[(5-chloro-2-thienyl)methyl]-3-[2,6-dichloro-4-(1,1,1-trifluoro-2-hydroxy-2-propanyl)phenyl]urea] | 9.00 |  |  |
| CC(O)(c1cc(Cl)c(NC(=O)NCC2CCCCC2)c(Cl)c1)C(F)(F)F (stereo not shown) [Example 5 (10), 1-(cyclohexylmethyl)-3-[2,6-dichloro-4-(1,1,1-trifluoro-2-hydroxy-2-propanyl)phenyl]urea] | 9.52 |  |  |
| CC(O)(c1cc(Cl)c(NC(=O)NCc2ccc(Br)cn2)c(Cl)c1)C(F)(F)F (stereo not shown) [Example 5 (11), 1-[(5-bromo-2-pyridinyl)methyl]-3-[2,6-dichloro-4-(1,1,1-trifluoro-2-hydroxy-2-propanyl)phenyl]urea] | 7.15 |  |  |
| CC(O)(c1cc(Cl)c(NC(=O)NCc2cc(-c3ccccc3)on2)c(Cl)c1)C(F)(F)F (stereo not shown) [Example 5 (16), 1-[2,6-dichloro-4-(1,1,1-trifluoro-2-hydroxy-2-propanyl)phenyl]-3-[(5-phenyl-1,2-oxazole-3-yl)methyl]urea] | 8.00 |  |  |
| CC(C)[C@@H](C)NC(=O)Nc1c(Cl)cc(C(C)(O)C(F)(F)F)cc1Cl (stereo partly drawn) [Example 5 (21), 1-[2,6-dichloro-4-(1,1,1-trifluoro-2-hydroxy-2-propanyl)phenyl]-3-[(2R)-3-methyl-2-butanyl]urea] | 7.15 |  |  |
| CC(O)(c1cc(Cl)c(NC(=O)NCc2nc(C3CC3)no2)c(Cl)c1)C(F)(F)F (stereo not shown) [Example 5 (22), 1-[(3-cyclopropyl-1,2,4-oxadiazole-5-yl)methyl]-3-[2,6-dichloro-4-(1,1,1-trifluoro-2-hydroxy-2-propanyl)phenyl]urea] | 6.15 |  | 85 µM (≈ 37.3 µg/mL) |
| CC(C)(C)c1cc(CNC(=O)Nc2c(Cl)cc(C(C)(O)C(F)(F)F)cc2Cl)no1 (stereo not shown) [Example 13, 1-[2,6-dichloro-4-(1,1,1-trifluoro-2-hydroxy-2-propanyl)phenyl]-3-{[5-(2-methyl-2-propanyl)-1,2-oxazole 3-yl]methyl}urea] | 8.00 |  | 69 µM (≈ 31.3 µg/mL) |
| CC(O)(c1cc(Cl)c(NC(=O)NCc2ncc(C(F)(F)F)cn2)c(Cl)c1F)C(F)(F)F (stereo not shown) [Example 43 (1), 1-[2,6-dichloro-3-fluoro-4-(1,1,1-trifluoro-2-hydroxy-2-propanyl)phenyl]-3-{[5-(trifluoromethyl)-2-pyrimidinyl]methyl}urea] | 6.40 |  | 89 µM (≈ 44.1 µg/mL) |
| CC(O)(c1cc(F)c(NC(=O)NCc2ccc(C(F)(F)F)cn2)c(Cl)c1)C(F)(F)F (stereo not shown) [Example 49, 1-[2-chloro-6-fluoro-4-(1,1,1-trifluoro-2-hydroxy-2-propanyl)phenyl]-3-{[5-(trifluoromethyl)-2-pyridinyl]methyl}urea] | 6.22 |  |  |
| Cc1cc(C(O)C(F)(F)F)cc(Cl)c1NC(=O)NCc1ccc(C(F)(F)F)cn1 (stereo not shown) [Example 62, 1-[2-chloro-6-methyl-4-(2,2,2-trifluoro-1-hydroxyethyl)phenyl]-3-{[5-(trifluoromethyl)-2-pyridinyl]methyl}urea] | 7.22 |  | 71 µM (≈ 31.4 µg/mL) |
| COC(C)(c1cc(Cl)c(NC(=O)NCc2ccc(C(F)(F)F)cn2)c(Cl)c1)C(F)(F)F (stereo not shown) [Example 71, 1-[2,6-dichloro-4-(1,1,1-trifluoro-2-methoxy-2-propanyl)phenyl]-3-{[5-(trifluoromethyl)-2-pyridinyl]methyl}urea] | 6.70 |  |  |
| NC(c1cc(Cl)c(NC(=O)NCc2cnc(C(F)(F)F)s2)c(Cl)c1)C(F)(F)F (stereo not shown) [Example 79 (4), 1-[4-(1-amino-2,2,2-trifluoroethyl)-2,6-dichlorophenyl]-3-{[2-(trifluoromethyl)-1,3-thiazole-5-yl]methyl}urea] | 6.52 |  |  |
